15 molecules from US20220041623A1, “INDOLE MACROCYCLIC DERIVATIVE, PREPARATION METHOD THEREOF AND APPLICATION THEREOF IN MEDICINE” (JIANGSU HENGRUI MEDICINE CO., LTD., priority 2018, published 2022) can be followed below.

The Ki is the equilibrium dissociation constant of an inhibitor or competing ligand from its target. By inhibition is commonly meant the relative decrease from the control value, in per cent.

This assay has as its target T1, MCL-1 protein (Homo sapiens, UniProt Q07820).
T1 construct: Bim peptide bought from R&D, 3526/1 NA
As to the kind of experiment: MCL-1 protein binding experiment (HTRF, MCL-1/Bim). As to conditions: for Maximum inhibition rate (%) / inhibition at up to 10 µM: HTRF MCL-1/Bim binding, initial concentration 10 μM; for Ki: HTRF, 0.1 nM His-MCL-1, 2.5 nM bio-Bim, room temperature; for inhibition at up to 10 µM: read-out: Maximum inhibition rate (%). As to the method: The following method was used to determine the binding ability of the compound of the present invention to MCL-1 protein. The experimental method is briefly described as follows.
MCL-1 inhibitors can bind to MCL-1 protein to prevent the binding of MCL-1 to Bim protein. The experiment evaluates the binding ability of MCL-1 inhibitor to MCL-1 protein by detecting the binding of MCL-1 to Bim protein through HTRF method, and the activity of the compound was evaluated according to the Ki value.
The mixture was incubated at room temperature for 2 hours, followed by the detection of fluorescence signals at 620 nm and 665 nm by PHERAstar. The data was processed by GraphPad software.
In general terms: Time-resolved FRET reads energy transfer from a long-lived donor to a nearby acceptor.

T1 sequence (Q07820 171-327): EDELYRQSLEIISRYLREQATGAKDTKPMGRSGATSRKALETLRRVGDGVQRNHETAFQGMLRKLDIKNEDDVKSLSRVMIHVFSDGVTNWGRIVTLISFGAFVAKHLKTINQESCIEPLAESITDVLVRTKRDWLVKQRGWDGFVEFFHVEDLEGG

`Cc1c(C(=O)O)n2c3ccc(Cl)c(c13)-c1c(nn(C)c1C)CSCc1cc(n(C)n1)CCc1cc3c(c(c1)OCCC2)CCCC3` (single isomer, unassigned) [Example 8-2, (Sa)-17-Chloro-5,13,14,22-tetramethyl-28-oxa-9-thia-5,6,12,13,24-pentaazaheptacyclo[27.7.1.1^4,7.0^11,15.0^16,21.0^20,24.0^30,35]octatriaconta-1(37),4(38),6,11,14,16,18,20,22,29,35-undecaene-23-carboxylic acid] showed a Ki of 57 nM. Further, the “Maximum inhibition rate (%)” value (10 µM) was determined as 98%.
Regarding `Cc1c(C(=O)O)n2c3ccc(Cl)c(c13)-c1c(nn(C)c1C)CSCc1cc(n(C)n1)CSc1cc(cc3c1CCC3)OCCC2` (single isomer, unassigned) [Example 12-2, (Sa)-17-Chloro-5,13,14,22-tetramethyl-28-oxa-2,9-dithia-5,6,12,13,24-pentaazaheptacyclo[27.6.1.1^4,7.0^11,15.0^16,21.0^20,24.0^30,35]heptatriaconta-1(36),4(37),6,11,14,16,18,20,22,29,31(35)-undecaene-23-carboxylic acid], the “Maximum inhibition rate (%)” value is 100% and the Ki is 5.7 nM.
As to `Cc1c(C(=O)O)n2c3ccc(Cl)c(c13)-c1c(nn(C)c1C)CSCc1cc(n(C)n1)CSc1cc3c(c(c1)OCCC2)CCC3` (single isomer, unassigned) [Example 13-2, (Sa)-17-Chloro-5,13,14,22-tetramethyl-28-oxa-2,9-dithia-5,6,12,13,24-pentaazaheptacyclo[27.6.1.1^4,7.0^11,15.0^16,21.0^20,24.0^30,34]heptatriaconta-1(36),4(37),6,11,14,16,18,20,22,29,34-undecaene-23-carboxylic acid], the affinity corresponds to a Ki of 4.4 nM. The “Maximum inhibition rate (%)” value (10 µM) was 99%.
For the molecule `CCc1c(C(=O)O)n2c3ccc(Cl)c(c13)-c1c(nn(C)c1C)CSCc1cc(n(C)n1)CSc1cc(c3ccccc3c1)OCCC2` (single isomer, unassigned) [Example 14-1, (Ra)-17-Chloro-22-ethyl-5,13-14-trimethyl-28-oxa-2,9-dithia-5,6,12,13,24-pentaazaheptacyclo[27.7.1.1^4,7.0^11,15.0^16,21.0^20,24.0^30,35]octatriaconta-1(37),4(38),6,11,14,16,18,20,22,29,31,33,35-tridecaene-23-carboxylic acid], the inhibition at up to 10 µM is 100% and affinity was put at a Ki of 0.32 nM.
For `Cc1c2c(nn1C)CSCc1cc(n(C)n1)CSc1cc(c3ccccc3c1)OCCCn1c(C(=O)O)cc3c-2c(Cl)ccc31` [Example 1, 17-Chloro-5,13-14-trimethyl-28-oxa-2,9-dithia-5,6,12,13,24-pentaazaheptacyclo[27.7.1.1^4,7.0^11,15.0^16,21.0^20,24.0^30,35]octatriaconta-1(37),4(38),6,11,14,16,18,20,22,29,31,33,35-tridecaene-23-carboxylic acid], in that order: 100% and 2.39 nM.
For `Cc1c(C(=O)O)n2c3ccc(Cl)c(c13)-c1c(nn(C)c1C)CSCc1cc(n(C)n1)CSc1cc(c3ccccc3c1)OCCC2` [Example 2, 17-Chloro-5,13,14,22-tetramethyl-28-oxa-2,9-dithia-5,6,12,13,24-pentaazaheptacyclo[27.7.1.1^4,7.0^11,15.0^16,21.0^20,24.0^30,35]octatriaconta-1(37),4(38),6,11,14,16,18,20,22,29,31,33,35-tridecaene-23-carboxylic acid], in that order: 99% and 0.18 nM.
In the case of `Cc1c(C(=O)O)n2c3ccc(Cl)c(c13)-c1c(nn(C)c1C)CN(C)Cc1cc(n(C)n1)CSc1cc(c3ccccc3c1)OCCC2` [Example 3, 17-Chloro-5,9,13,14,22-pentamethyl-28-oxa-2-thia-5,6,9,12,13,24-hexaazaheptacyclo[27.7.1.1^4,7.0^11,15.0^16,21.0^20,24.0^30,35]octatriaconta-1(37),4(38),6,11,14,16,18,20,22,29,31,33,35-tridecaene-23-carboxylic acid], the inhibition at up to 10 µM amounted to 100% and the Ki came out at 0.6 nM.
For `Cc1c(C(=O)O)n2c3ccc(Cl)c(c13)-c1c(nn(C)c1C)CSCc1cc(n(C)n1)CCc1cc(c3ccccc3c1)OCCC2` [Example 4, 17-Chloro-5,13,14,22-tetramethyl-28-oxa-9-thia-5,6,12,13,24-pentaazaheptacyclo[27.7.1.1^4,7.0^11,15.0^16,21.0^20,24.0^30,35]octatriaconta-1(37),4(38),6,11,14,16,18,20,22,29,31,33,35-tridecaene-23-carboxylic acid], in that order: 99% and 1.35 nM.
For `Cc1cc2cc(c1)SCc1cc(nn1C)CN(C)Cc1nn(C)c(C)c1-c1c(Cl)ccc3c1c(C)c(C(=O)O)n3CCCO2` [Example 5, 17-Chloro-5,9,13,14,22,31-hexamethyl-28-oxa-2-thia-5,6,9,12,13,24-hexaazahexacyclo[27.3.1.1^4,7.0^11,15.0^16,21.0^20.24]tetratriaconta-1(33),4(34),6,11,14,16,18,20,22,29,31-undecaene-23-carboxylic acid], in that order: 99% and 4.8 nM.
With `Cc1cc2cc(c1)SCc1cc(nn1C)CSCc1nn(C)c(C)c1-c1c(Cl)ccc3c1c(C)c(C(=O)O)n3CCCO2` [Example 6, 17-Chloro-5,13,14,22,31-pentamethyl-28-oxa-2,9-dithia-5,6,12,13,24-pentaazahexacyclo[27.3.1.1^4,7.0^11,15.0^16,21.0^20,24]tetratriaconta-1(33),4(34),6,11,14,16,18,20,22,29,31-undecaene-23-carboxylic acid], the inhibition at up to 10 µM came to 98% and affinity was put at a Ki of 1.9 nM.
For `Cc1c(C(=O)O)n2c3ccc(Cl)c(c13)-c1c(nn(C)c1C)CSCc1cc(n(C)n1)CSc1cc3c(c(c1)OCCC2)CCCC3` [Example 7, 17-Chloro-5,13,14,22-tetramethyl-28-oxa-2,9-dithia-5,6,12,13,24-pentaazaheptacyclo[27.7.1.1^4,7.0^11,15.0^16,21.0^20,24.0^30,35]octatriaconta-1(37),4(38),6,11,14,16,18,20,22,29,35-undecaene-23-carboxylic acid] the same measures were 99% and 0.71 nM.
For the molecule `Cc1c(C(=O)O)n2c3ccc(Cl)c(c13)-c1c(nn(C)c1C)CSCc1cc(n(C)n1)CCc1cc3c(c(c1)OCCC2)CCCC3` [Example 8, 17-Chloro-5,13,14,22-tetramethyl-28-oxa-9-thia-5,6,12,13,24-pentaazaheptacyclo[27.7.1.1^4,7.0^11,15.0^16,21.0^20,24.0^30,35]octatriaconta-1(37),4(38),6,11,14,16,18,20,22,29,35-undecaene-23-carboxylic acid], the inhibition at up to 10 µM was found to be 100% and the Ki came out at 0.55 nM.
For `Cc1c(C(=O)O)n2c3ccc(Cl)c(c13)-c1c(nn(C)c1C)CN(C)Cc1cc(n(C)n1)CSc1cc3c(c(c1)OCCC2)CCCC3` [Example 9, 17-Chloro-5,9,13,14,22-pentamethyl-28-oxa-2-thia-5,6,9,12,13,24-hexaazaheptacyclo[27.7.1.1^4,7.0^11,15.0^16,21.0^20,24.0^30,35]octatriaconta-1(37),4(38),6,11,14,16,18,20,22,29,35-undecaene-23-carboxylic acid], the inhibition at up to 10 µM stood at 100% and affinity was put at a Ki of 1.5 nM.
For `Cc1c(C(=O)O)n2c3ccc(Cl)c(c13)-c1c(nn3c1CCCC3)CSCc1cc(n(C)n1)CSc1cc(c3ccccc3c1)OCCC2` [Example 10, 21-Chloro-5,26-dimethyl-32-oxa-2,9-dithia-5,6,12,13,28-pentaazaoctacyclo[31.7.1.1^4,7.0^11,19.0^13,18.0^20,25.0^24,28.0^34,39]dotetraconta-1(41),4(42),6,11,18,20,22,24,26,33,35,37,39-tridecaene-27-carboxylic acid] the same measures were 101% and 7.9 nM.
For `Cc1c(C(=O)O)n2c3ccc(Cl)c(c13)-c1c(nn3c1CCCC3)CN(C)Cc1cc(n(C)n1)CSc1cc(c3ccccc3c1)OCCC2` [Example 11, 21-Chloro-5,9,26-trimethyl-32-oxa-2-thia-5,6,9,12,13,28-hexaazaoctacyclo[31.7.1.1^4,7.0^11,19.0^13,18.0^20,25.0^24,28.0^34,39]dotetraconta-1(41),4(42),6,11,18,20,22,24,26,33,35,37,39-tridecaene-27-carboxylic acid], in that order: 100% and 3 nM.
